# Laboratory results: PMC3268193 (British Journal of Pharmacology, 2012)
# Positions count from the first letter of the chain named. Where “and” joins values, the source holds several entries; their conditions need not be identical. Equal values may be shown once.
# Columns and labels:
# human P2X1 receptor WT = target: T1, human P2X1 receptor WT (Homo sapiens, UniProt P51575); assay: Two-electrode voltage clamp, WT P2X1 receptor in Xenopus oocytes; assay type: cell-based
# T1 sequence (P51575 1-399): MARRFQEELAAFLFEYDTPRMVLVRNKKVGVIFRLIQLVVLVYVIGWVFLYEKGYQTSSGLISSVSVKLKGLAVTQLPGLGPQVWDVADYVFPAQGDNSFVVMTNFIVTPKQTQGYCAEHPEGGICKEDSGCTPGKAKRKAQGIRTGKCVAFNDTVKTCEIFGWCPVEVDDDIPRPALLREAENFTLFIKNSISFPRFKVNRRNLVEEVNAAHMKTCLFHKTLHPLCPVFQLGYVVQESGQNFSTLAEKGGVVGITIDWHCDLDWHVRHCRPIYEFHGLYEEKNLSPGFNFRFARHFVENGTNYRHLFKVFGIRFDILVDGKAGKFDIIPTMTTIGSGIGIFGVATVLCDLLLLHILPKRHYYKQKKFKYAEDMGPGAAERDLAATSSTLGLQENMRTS
# human P2X2 receptor WT = target: T2, human P2X2 receptor WT (Homo sapiens, UniProt Q9UBL9); assay: Two-electrode voltage clamp, WT P2X2 receptor in Xenopus oocytes; assay type: cell-based
# T2 sequence (Q9UBL9 1-471): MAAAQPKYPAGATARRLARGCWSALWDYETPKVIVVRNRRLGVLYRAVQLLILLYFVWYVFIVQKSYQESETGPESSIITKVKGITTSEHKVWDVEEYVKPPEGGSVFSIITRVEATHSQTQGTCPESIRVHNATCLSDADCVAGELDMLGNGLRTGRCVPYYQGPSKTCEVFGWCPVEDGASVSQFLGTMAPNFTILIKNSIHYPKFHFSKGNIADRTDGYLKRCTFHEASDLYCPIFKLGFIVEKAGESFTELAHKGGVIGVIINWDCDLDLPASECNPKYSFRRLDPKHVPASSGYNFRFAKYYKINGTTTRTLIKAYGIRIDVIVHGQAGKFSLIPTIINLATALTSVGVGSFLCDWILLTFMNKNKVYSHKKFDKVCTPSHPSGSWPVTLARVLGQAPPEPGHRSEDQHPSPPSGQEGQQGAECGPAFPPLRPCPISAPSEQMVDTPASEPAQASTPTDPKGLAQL
# [1] = target: T3, P2X1 receptor mutant K136E (Homo sapiens, UniProt P51575, K136E); assay: Two-electrode voltage clamp, P2X1 mutant K136E; assay type: cell-based
# T3 sequence (P51575 1-399 K136E): T1 sequence (P51575 1-399) with K136E
# [2] = target: T4, P2X1 receptor mutant K140L (Homo sapiens, UniProt P51575, K140L); assay: Two-electrode voltage clamp, P2X1 mutant K140L; assay type: cell-based
# T4 sequence (P51575 1-399 K140L): T1 sequence (P51575 1-399) with K140L
# P2X2 Cys1(3-4) chimera = target: T5, P2X2 Cys1(3-4) chimera (Homo sapiens, UniProt Q9UBL9, A144P/D148K/E146K/G151A/L147A/L150K/L154I/M149R/N152Q/R158K/V143T); assay: Two-electrode voltage clamp, chimera P2X2 Cys1; assay type: cell-based
# T5 sequence (Q9UBL9 1-471 V143T/A144P/E146K/L147A/D148K/M149R/L150K/G151A/N152Q/L154I/R158K): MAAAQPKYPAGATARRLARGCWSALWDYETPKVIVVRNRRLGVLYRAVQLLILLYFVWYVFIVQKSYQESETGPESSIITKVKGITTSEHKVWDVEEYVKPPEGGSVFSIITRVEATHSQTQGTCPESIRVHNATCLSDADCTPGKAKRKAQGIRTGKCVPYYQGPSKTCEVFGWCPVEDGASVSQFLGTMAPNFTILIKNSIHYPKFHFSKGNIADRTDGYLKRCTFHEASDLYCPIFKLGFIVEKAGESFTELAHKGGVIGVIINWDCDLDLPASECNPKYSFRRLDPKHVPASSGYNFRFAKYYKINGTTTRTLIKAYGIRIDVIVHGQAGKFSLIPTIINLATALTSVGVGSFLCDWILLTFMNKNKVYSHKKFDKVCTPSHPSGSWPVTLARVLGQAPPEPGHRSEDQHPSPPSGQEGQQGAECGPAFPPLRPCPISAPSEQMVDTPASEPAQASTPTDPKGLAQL
# [3] = target: T6, P2X2 receptor mutant D136K (Homo sapiens, UniProt Q9UBL9, D148K); assay: Two-electrode voltage clamp, P2X2 mutant D136K; assay type: cell-based
# T6 sequence (Q9UBL9 1-471 D148K): T2 sequence (Q9UBL9 1-471) with D148K
# [4] = tested on: WT or mutant P2X receptors; assay: Holding current in the absence of ATP; assay type: cell-based, human
# [5] = 1 nM antagonist, EC90 ATP (10 µM)
Structure (SMILES),Difference in suramin sensitivity between human P2X1 and P2X2 receptors (human P2X1 receptor WT) [fold],"Reduction of responses to ATP (human P2X2 receptor WT; P2X2, 100 µM suramin, ATP 30 µM (EC90)) [%]",Effect of mutation on suramin sensitivity [1],Effect of mutation on suramin sensitivity [2],Increase in suramin sensitivity compared with WT P2X2 (P2X2 Cys1(3-4) chimera) [fold],Effect of mutation on suramin sensitivity [3],Effect on holding current ([4]; suramin 100 µM),Schild slope (human P2X1 receptor WT; WT P2X1),"Hill slope of NF449 inhibition curve (human P2X1 receptor WT; WT P2X1, vs EC90 ATP)","NF449 pIC50 (human P2X2 receptor WT; P2X2 WT, vs EC90 concentration of ATP)","Hill slope of NF449 inhibition curve (human P2X2 receptor WT; WT P2X2, vs EC90 ATP)","IC50 (human P2X2 receptor WT; read-out: NF449 IC50, P2X2 receptor, vs EC90 ATP (30 µM))","Reduction of ATP-evoked current [1, 5]","Reduction of ATP-evoked current [2, 5]","IC50 (P2X2 Cys1(3-4) chimera; read-out: NF449 IC50, vs EC90 ATP) [µM]",Effect of mutation on NF449 sensitivity [3],Effect on holding current ([4]; NF449 10 µM)
Cc1ccc(C(=O)Nc2ccc(S(=O)(=O)O)c3cc(S(=O)(=O)O)cc(S(=O)(=O)O)c23)cc1NC(=O)c1cccc(NC(=O)Nc2cccc(C(=O)Nc3cc(C(=O)Nc4ccc(S(=O)(=O)O)c5cc(S(=O)(=O)O)cc(S(=O)(=O)O)c45)ccc3C)c2)c1 [suramin],~60,~50,no effect,no effect,~30,no effect,no effect,–,–,–,–,–,–,–,–,–,–
"O=C(Nc1cc(C(=O)Nc2ccc(S(=O)(=O)O)cc2S(=O)(=O)O)cc(C(=O)Nc2ccc(S(=O)(=O)O)cc2S(=O)(=O)O)c1)Nc1cc(C(=O)Nc2ccc(S(=O)(=O)O)cc2S(=O)(=O)O)cc(C(=O)Nc2ccc(S(=O)(=O)O)cc2S(=O)(=O)O)c1 [NF449, 4,4′,4′′,4′′′-(carbonylbis(imino-5,1,3-benzenetriyl-bis(carbonylimino)))tetrakis-benzene-1,3-disulphonic acid]",–,–,–,–,–,–,–,1.17± 0.16,0.98 ± 0.13,5.86 ± 0.09,1.61 ± 0.08,~1 µM and ~1.5 µM,40–70%,40–70%,1.1,no effect,no effect
